Measured values published in patent publication US11739098B2 (BRISTOL-MYERS SQUIBB COMPANY, priority 2017, dated 2023).

Columns and labels:
Format in all cases: cell-based
[1] = biological target: T1, human TLR8 (Homo sapiens, UniProt Q9NR97); experiment: TLR8 inhibition reporter assay (HEK-Blue cells, SEAP reporter, R848 stimulation); conditions: HEK-Blue cells overexpressing human TLR8, SEAP reporter, R848 15.9 μM
T1 construct: host or cells: HEK-Blue cells (HEK293-derived reporter line)
T1 sequence (Q9NR97 27-1041): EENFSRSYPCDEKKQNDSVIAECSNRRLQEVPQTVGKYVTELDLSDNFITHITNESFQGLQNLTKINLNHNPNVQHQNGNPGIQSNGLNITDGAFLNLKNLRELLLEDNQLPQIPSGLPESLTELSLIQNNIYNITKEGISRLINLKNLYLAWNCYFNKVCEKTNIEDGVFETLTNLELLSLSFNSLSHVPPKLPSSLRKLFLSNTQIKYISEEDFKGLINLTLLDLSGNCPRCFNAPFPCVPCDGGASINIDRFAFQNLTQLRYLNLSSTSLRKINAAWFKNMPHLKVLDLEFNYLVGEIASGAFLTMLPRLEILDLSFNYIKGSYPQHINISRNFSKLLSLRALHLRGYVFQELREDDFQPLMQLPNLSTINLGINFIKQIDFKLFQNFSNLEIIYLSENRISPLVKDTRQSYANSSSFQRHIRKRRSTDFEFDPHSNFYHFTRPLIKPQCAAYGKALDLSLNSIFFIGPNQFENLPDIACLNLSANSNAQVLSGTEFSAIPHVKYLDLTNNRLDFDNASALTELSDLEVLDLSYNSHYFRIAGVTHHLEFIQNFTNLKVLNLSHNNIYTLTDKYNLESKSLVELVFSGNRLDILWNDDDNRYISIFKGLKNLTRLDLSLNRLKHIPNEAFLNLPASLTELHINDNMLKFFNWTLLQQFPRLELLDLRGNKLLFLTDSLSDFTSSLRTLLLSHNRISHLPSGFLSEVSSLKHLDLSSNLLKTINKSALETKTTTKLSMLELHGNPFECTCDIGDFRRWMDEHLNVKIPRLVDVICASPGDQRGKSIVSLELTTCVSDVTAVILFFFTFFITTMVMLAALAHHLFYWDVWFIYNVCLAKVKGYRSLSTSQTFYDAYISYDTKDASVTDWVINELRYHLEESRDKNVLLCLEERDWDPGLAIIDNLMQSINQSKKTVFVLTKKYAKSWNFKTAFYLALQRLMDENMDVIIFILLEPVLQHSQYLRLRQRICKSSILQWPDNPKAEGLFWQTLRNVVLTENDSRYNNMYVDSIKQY
Method in brief: (§1)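 HEK-Blue cells overexpressing the receptor, with NF-κB/AP-1-driven SEAP, were pre-treated 30 min at room temperature with compound (0.05 nM–50 μM), then stimulated with gardiquimod 7.5 μM (TLR7), R848 15.9 μM (TLR8) or ODN2006 5 nM (TLR9). SEAP was read after 22 h at 37 °C as percent inhibition.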

[2] = biological target: T2, human TLR7 (Homo sapiens, UniProt Q9NYK1); experiment: TLR7 inhibition reporter assay (HEK-Blue cells, SEAP reporter, gardiquimod stimulation); conditions: HEK-Blue cells overexpressing human TLR7, SEAP reporter, gardiquimod 7.5 μM
T2 construct: host or cells: HEK-Blue cells (HEK293-derived reporter line)
T2 sequence (Q9NYK1 27-1049): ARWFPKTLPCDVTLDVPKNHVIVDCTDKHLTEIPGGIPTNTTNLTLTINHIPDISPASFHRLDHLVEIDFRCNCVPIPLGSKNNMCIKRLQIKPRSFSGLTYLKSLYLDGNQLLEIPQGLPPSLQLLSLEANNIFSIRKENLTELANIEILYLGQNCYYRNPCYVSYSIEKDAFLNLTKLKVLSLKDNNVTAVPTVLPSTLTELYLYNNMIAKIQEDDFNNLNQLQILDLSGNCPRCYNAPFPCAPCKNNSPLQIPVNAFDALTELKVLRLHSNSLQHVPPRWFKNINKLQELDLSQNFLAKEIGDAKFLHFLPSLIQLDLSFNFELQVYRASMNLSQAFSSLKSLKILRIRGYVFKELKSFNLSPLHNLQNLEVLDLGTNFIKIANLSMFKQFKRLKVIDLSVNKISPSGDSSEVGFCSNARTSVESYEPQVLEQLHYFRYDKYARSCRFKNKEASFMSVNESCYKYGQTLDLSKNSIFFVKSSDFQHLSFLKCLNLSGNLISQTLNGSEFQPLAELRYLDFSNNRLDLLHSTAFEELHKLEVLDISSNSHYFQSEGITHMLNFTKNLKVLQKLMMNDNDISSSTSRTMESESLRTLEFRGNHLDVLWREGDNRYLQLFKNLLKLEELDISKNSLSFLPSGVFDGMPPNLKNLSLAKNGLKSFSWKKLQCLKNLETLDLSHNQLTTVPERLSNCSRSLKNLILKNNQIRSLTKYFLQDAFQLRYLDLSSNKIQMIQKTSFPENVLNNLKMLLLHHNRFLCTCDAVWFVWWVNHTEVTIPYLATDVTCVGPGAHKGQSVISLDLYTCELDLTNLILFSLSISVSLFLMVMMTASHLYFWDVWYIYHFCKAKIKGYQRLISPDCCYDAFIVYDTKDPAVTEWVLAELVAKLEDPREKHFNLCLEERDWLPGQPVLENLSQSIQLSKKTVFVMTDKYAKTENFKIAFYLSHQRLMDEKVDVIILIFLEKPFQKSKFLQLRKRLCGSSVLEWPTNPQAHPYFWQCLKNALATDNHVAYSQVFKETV
Method in brief: as §1

[3] = biological target: T3, human TLR9 (Homo sapiens, UniProt Q9NR96); experiment: TLR9 inhibition reporter assay (HEK-Blue cells, SEAP reporter, ODN2006 stimulation); conditions: HEK-Blue cells overexpressing human TLR9, SEAP reporter, ODN2006 5 nM
T3 construct: host or cells: HEK-Blue cells (HEK293-derived reporter line)
T3 sequence (Q9NR96 26-1032): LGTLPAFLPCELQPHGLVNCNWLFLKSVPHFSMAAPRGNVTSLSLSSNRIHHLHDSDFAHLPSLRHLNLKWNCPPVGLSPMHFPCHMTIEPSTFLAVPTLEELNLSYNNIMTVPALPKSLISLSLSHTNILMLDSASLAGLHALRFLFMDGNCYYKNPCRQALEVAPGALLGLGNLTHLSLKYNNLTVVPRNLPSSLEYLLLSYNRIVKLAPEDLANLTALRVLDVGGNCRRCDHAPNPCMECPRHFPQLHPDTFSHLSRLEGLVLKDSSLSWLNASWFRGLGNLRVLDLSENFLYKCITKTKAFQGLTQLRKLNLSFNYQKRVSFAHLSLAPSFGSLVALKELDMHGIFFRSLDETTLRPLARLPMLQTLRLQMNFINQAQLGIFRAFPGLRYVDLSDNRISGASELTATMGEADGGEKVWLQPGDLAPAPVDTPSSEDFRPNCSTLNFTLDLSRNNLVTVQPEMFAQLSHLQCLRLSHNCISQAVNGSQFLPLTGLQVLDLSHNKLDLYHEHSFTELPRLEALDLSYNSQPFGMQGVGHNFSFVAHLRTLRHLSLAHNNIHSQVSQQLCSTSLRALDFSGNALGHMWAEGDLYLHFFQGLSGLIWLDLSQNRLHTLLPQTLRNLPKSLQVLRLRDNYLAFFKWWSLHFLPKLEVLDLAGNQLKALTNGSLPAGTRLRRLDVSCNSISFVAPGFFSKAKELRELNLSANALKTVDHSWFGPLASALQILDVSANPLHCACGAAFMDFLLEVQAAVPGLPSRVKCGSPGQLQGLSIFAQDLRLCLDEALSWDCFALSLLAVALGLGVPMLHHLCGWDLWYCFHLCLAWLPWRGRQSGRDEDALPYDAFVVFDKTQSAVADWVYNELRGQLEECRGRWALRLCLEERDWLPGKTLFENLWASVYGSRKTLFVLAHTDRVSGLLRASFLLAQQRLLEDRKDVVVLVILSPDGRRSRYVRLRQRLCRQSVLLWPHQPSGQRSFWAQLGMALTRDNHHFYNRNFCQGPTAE
Method in brief: as §1

SMILES | IC50 [1] | IC50 [2] | IC50 [3]
CC(C)c1c(-c2ccc3oc(=O)[nH]c3c2)[nH]c2ccc(C3CCNCC3)cc12 [Example 11, 5-(3-isopropyl-5-(piperidin-4-yl)-1H-indol-2-yl)benzo[d]oxazol-2(3H)-one] | 100 to 1000 nM | < 100 nM | 100 to 1000 nM
COc1cc(-c2[nH]c3ccc(C4CCNCC4)cc3c2C(C)C)cn2ccnc12 [Example 125, 6-(3-isopropyl-5-(piperidin-4-yl)-1H-indol-2-yl)-8-methoxyimidazo[1,2-a]pyridine] | < 100 nM | < 100 nM | 100 to 1000 nM
CC(C)c1c(-c2cnc3ccnn3c2)[nH]c2ccc(C3CCN(CC(C)(C)O)CC3)cc12 [Example 759, 1-(4-(3-isopropyl-2-(pyrazolo[1,5-a]pyrimidin-6-yl)-1H-indol-5-yl)piperidin-1-yl)-2-methylpropan-2-ol] | 1000 to 50000 nM | 100 to 1000 nM | 1000 to 50000 nM
CN1CC(C(=O)N2CCC(c3ccc4[nH]c(-c5ccc6nccn6c5)c(CC(F)F)c4c3)CC2)CC1=O (stereo not drawn) [Example 644, 4-(4-(3-(2,2-difluoroethyl)-2-(imidazo[1,2-a]pyridin-6-yl)-1H-indol-5-yl)piperidine-1-carbonyl)-1-methylpyrrolidin-2-one] | 1000 to 50000 nM | 100 to 1000 nM | > 50000 nM
COc1cc(-c2[nH]c3ccc(C4CCN(C5COC5)CC4)cc3c2C(C)C)cn2ccnc12 [Example 722, 6-(3-isopropyl-5-(1-(oxetan-3-yl)piperidin-4-yl)-1H-indol-2-yl)-8-methoxyimidazo[1,2-a]pyridine] | < 100 nM | < 100 nM | 1000 to 50000 nM
CC(C)c1c(-c2ccc3nccn3c2)[nH]c2ccc(C3CCN(C(=O)C4CC(=O)N(C)C4)CC3)cc12 (stereo not drawn) [Example 645, 4-(4-(2-(imidazo[1,2-a]pyridin-6-yl)-3-isopropyl-1H-indol-5-yl)piperidine-1-carbonyl)-1-methylpyrrolidin-2-one] | 100 to 1000 nM | < 100 nM | > 50000 nM
CC(C)c1c(-c2ccn3nccc3n2)[nH]c2ccc(C3CCNCC3)cc12 [Example 193, 5-(3-isopropyl-5-(piperidin-4-yl)-1H-indol-2-yl)pyrazolo[1,5-a]pyrimidine] | 100 to 1000 nM | 100 to 1000 nM | 1000 to 50000 nM
Cc1nnn2ccc(-c3[nH]c4ccc(C5CCN(C6CCOCC6)CC5)cc4c3C(C)C)cc12 [Example 700, 5-(3-isopropyl-5-(1-(tetrahydro-2H-pyran-4-yl)piperidin-4-yl)-1H-indol-2-yl)-3-methyl-[1,2,3]triazolo[1,5-a]pyridine] | < 100 nM | < 100 nM | 100 to 1000 nM
Cc1cc2nc(-c3[nH]c4ccc(C5CCN(CC(=O)N(C)C)CC5)cc4c3C(C)C)c(F)cn2n1 [Example 438, 2-(4-(2-(6-fluoro-2-methylpyrazolo[1,5-a]pyrimidin-5-yl)-3-isopropyl-1H-indol-5-yl)piperidin-1-yl)-N,N-dimethylacetamide] | 100 to 1000 nM | 100 to 1000 nM | 1000 to 50000 nM
CCc1c(-c2ccnc3[nH]cc(C)c23)[nH]c2ccc(C3CCNCC3)cc12 [Example 217, 4-(3-ethyl-5-(piperidin-4-yl)-1H-indol-2-yl)-3-methyl-1H-pyrrolo[2,3-b]pyridine] | 100 to 1000 nM | 100 to 1000 nM | 100 to 1000 nM
CC(C)c1c(-c2ccnc3[nH]ncc23)[nH]c2ccc(C3CCN(Cc4ccc(N5CCN(C)CC5)cc4)CC3)cc12 [Example 919, 4-(3-isopropyl-5-(1-(4-(4-methylpiperazin-1-yl)benzyl)piperidin-4-yl)-1H-indol-2-yl)-1H-pyrazolo[3,4-b]pyridine] | < 100 nM | < 100 nM | 100 to 1000 nM
Cc1cc(-c2[nH]c3ccc(C4CCN(C(=O)CN(C)C5CC5)CC4)cc3c2C(C)C)cn2nnnc12 [Example 483, 2-(cyclopropyl(methyl)amino)-1-(4-(3-isopropyl-2-(8-methyltetrazolo[1,5-a]pyridin-6-yl)-1H-indol-5-yl)piperidin-1-yl)ethan-1-one] | < 100 nM | < 100 nM | 1000 to 50000 nM
CCc1c(-c2ccc3ncc(C)n3n2)[nH]c2ccc(C3CCNCC3)cc12 [Example 103, 6-(3-ethyl-5-(piperidin-4-yl)-1H-indol-2-yl)-3-methylimidazo[1,2-b]pyridazine] | 100 to 1000 nM | 1000 to 50000 nM | 1000 to 50000 nM
COc1cc(-c2[nH]c3ccc(C4CCN(C5COC5)CC4)cc3c2C(C)C)cc2ncnn12 [Example 710, 7-(3-isopropyl-5-(1-(oxetan-3-yl)piperidin-4-yl)-1H-indol-2-yl)-5-methoxy-[1,2,4]triazolo[1,5-a]pyridine] | < 100 nM | < 100 nM | 1000 to 50000 nM
CNC(=O)CN1CCC(c2ccc3[nH]c(-c4cc(C)nc5ccccc45)c(C(C)C)c3c2)CC1 [Example 328, 2-(4-(3-isopropyl-2-(2-methylquinolin-4-yl)-1H-indol-5-yl)piperidin-1-yl)-N-methylacetamide] | < 100 nM | < 100 nM | 1000 to 50000 nM
